Results as given in ChEMBL document CHEMBL1201862, “PubChem BioAssay data set” (2004).
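Following 48 hours of exposure in 96-well plates, responses at five concentrations were used to interpolate endpoints linearly. Here, GI50 denotes the concentration required for 50% inhibition of growth.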 Calls of active or inactive are those of the source. Rule as the data show it: active = GI50 up to about 1.1 µM and inactive = higher.

Tests used:
Assay in all cases: NCI tumour cell line growth inhibition, 48 h
786-0 = test system: 786-0
A498 = test system: A498
ACHN = test system: ACHN
BT-549 = test system: BT-549
CAKI-1 = test system: CAKI-1
HCC 2998 = test system: HCC 2998
HL-60 = test system: HL-60
Hs-578T = test system: Hs-578T
IGROV-1 = test system: IGROV-1
KM12 = test system: KM12
LOX IMVI = test system: LOX IMVI
MDA-MB-435 = test system: MDA-MB-435
Malme-3M = test system: Malme-3M
NCI-H522 = test system: NCI-H522
NCI/ADR-RES = test system: NCI/ADR-RES
RXF 393 = test system: RXF 393
SF-539 = test system: SF-539
SNB-19 = test system: SNB-19
U-251 = test system: U-251
UO-31 = test system: UO-31

Measured: GI50

CCCCCCCCCCCCCCCCCC(=O)Nc1ccn(C2OC(CO)C(O)C2O)c(=O)n1 (stereo not given)
inactive: 786-0 > 40.8 µM | A498 15.3 µM | ACHN 4.74 µM | BT-549 > 54.2 µM | CAKI-1 10.5 µM | HCC 2998 8.36 µM | HL-60 3.43 µM | Hs-578T > 100 µM | IGROV-1 39 µM | KM12 > 65.9 µM | LOX IMVI 9.89 µM | MDA-MB-435 19.3 µM | Malme-3M > 27.9 µM | NCI-H522 5.04 µM | NCI/ADR-RES 30.5 µM | RXF 393 26.8 µM | SF-539 > 76.6 µM | SNB-19 19.4 µM | U-251 19.4 µM | UO-31 5.87 µM

Nc1ccc2c(c1)CN1C(=O)c3ccccc3C1=N2 [DANIQUIDONE]
inactive: 786-0 28.4 µM | A498 43.1 µM | ACHN 14.7 µM | BT-549 > 93.3 µM | CAKI-1 41.4 µM | HCC 2998 63 µM | HL-60 8.3 µM | Hs-578T 21.3 µM | IGROV-1 34.2 µM | KM12 50.7 µM | LOX IMVI 35.7 µM | MDA-MB-435 29.2 µM | Malme-3M 67 µM | NCI-H522 45.3 µM | NCI/ADR-RES 66.1 µM | RXF 393 34.4 µM | SF-539 10.3 µM | SNB-19 29 µM | U-251 27.7 µM | UO-31 27.3 µM

O=C(O)c1ccccc1/C=C1\Cc2ccccc2C1=O
inactive: 786-0 > 100 µM | A498 > 100 µM | ACHN > 100 µM | BT-549 19.3 µM | CAKI-1 > 100 µM | HCC 2998 > 100 µM | HL-60 > 100 µM | Hs-578T > 100 µM | IGROV-1 > 100 µM | KM12 > 100 µM | LOX IMVI 91 µM | MDA-MB-435 > 100 µM | Malme-3M > 100 µM | NCI-H522 > 100 µM | NCI/ADR-RES > 100 µM | RXF 393 > 100 µM | SF-539 > 100 µM | SNB-19 > 100 µM | U-251 > 100 µM | UO-31 > 100 µM
